Patent publication US8623405B2, “Finely divided composition containing poorly water soluble substance” (Takeda Pharmaceutical Company Limited, priority 2005, dated 2014)

Columns and labels:
Format in all cases: physicochemical
[1] = Degree of crystallinity of composition after pulverization (powder X-ray diffraction, Vonk method); settings: after pulverization (freeze-dried pulverized suspension of Example 1)
Description: A powder obtained by freeze-drying the pulverized suspension obtained in Example 1 was enclosed in a quartz glass capillary and measured using a powder X-ray diffraction measurement apparatus (Rigaku Corporation, ultraX TTR2-300), Cu rotating target, parallel beam method (50 kV, 300 mA), scanning angle 3-120 degrees, scan step 0.02 degree/counting time 0.6 sec. The degree of crystallinity was calculated from the obtained X-ray diffraction profile using the Vonk method.
The X-ray diffraction profiles were obtained by measurements using the above-mentioned measurement apparatuses and conditions.

[2] = as above; settings: before pulverization
[3] = Particle size measurement of pulverized suspensions (laser diffraction/scattering LA-920)
[4] = as above; settings: after pulverization (Example 1, ball mill with Kollidon 17PF and sodium lauryl sulfate)
Source text: The dispersion medium used for the measurement is usually water, but an aqueous solution of a substance other than the poorly water soluble substance contained in the composition and the like (for some purposes, buffer solutions at various pH levels, mimicked body fluid, 0.5% methylcellulose aqueous solution and the like) can also be used.
“90% frequency particle diameter” is a particle diameter corresponding to the 90% frequency of the above-described integral distribution curve and, in the present invention, means the particle diameter of 90% frequency (90% frequency particle diameter) of the composition dispersed in a liquid, as measured using a laser diffraction/scattering particle size distribution analyzer (LA-920, Horiba Ltd.).
As a dispersion medium, purified water was used.

[5] = after pulverization (Example 1, ball mill with Kollidon 17PF and sodium lauryl sulfate)
[6] = before pulverization, substances used in Example 1

| SMILES | degree of crystallinity [1] | turbulent factor [1] | degree of crystallinity [2] | turbulent factor [2] | particle size: D50 [3, 5] | particle size: D50 [3, 6] | D90 [4] |
| --- | --- | --- | --- | --- | --- | --- | --- |
| FC(F)(F)c1ccc(/C=C/c2nc(COc3ccc(CCCCn4ccnn4)cc3)co2)cc1 [compound A, 1-(4-{4-[(2-{(E)-2-[4-(trifluoromethyl)phenyl]ethenyl}-1,3-oxazol-4-yl)methoxy]phenyl}butyl)-1H-1,2,3-triazole] | 61.3% | 1.412 | 74.7% | −0.163 | 0.42 μm | 5.68 μm | 0.68 μm |
| CCC1=C(C)CN(C(=O)NCCc2ccc(S(=O)(=O)NC(=O)N[C@H]3CC[C@H](C)CC3)cc2)C1=O [glimepiride] | 68.7% | 2.249 | 73.7% | 0.622 | 0.39 μm | 1.67 μm | 0.55 μm |
| COC1=CC(=O)C[C@@H](C)[C@]12Oc1c(Cl)c(OC)cc(OC)c1C2=O [griseofluvin, 7-chloro-2′,4,6-trimethoxy-6′-methylspiro[benzofuran-2(3H),1′-[2]cyclohexene]-3,4′-dione] |  |  |  |  | 0.35 μm | 6.35 μm | 0.50 μm |
| COc1ccc2c(c1)c(CC(=O)O)c(C)n2C(=O)c1ccc(Cl)cc1 [indomethacin] | 89.8% | 0.793 | 99.9% | −0.001 | 0.36 μm | 9.61 μm | 0.50 μm |
| CC(C(=O)O)c1cccc(C(=O)c2ccccc2)c1 (stereo not shown) [ketoprofen, Ketoprofen] |  |  |  |  | 0.50 μm |  | 0.77 μm |
| COc1cc(NS(=O)(=O)c2ccc(N)cc2)nc(OC)n1 [sulfadimethoxine] |  |  |  |  | 0.44 μm |  | 0.65 μm |
